Each compound was assayed against T1, N-terminally GST-tagged human full length recombinant Mps-1 kinase (Homo sapiens, UniProt P33981) (assay: Mps-1 kinase assay (TR-FRET)). Conditions: Mps1 IC50 [nM], 10 μM ATP, 1 μM peptide substrate, 60 min at 22° C.
T1 construct: N-terminally GST-tagged human full length recombinant Mps-1 kinase; purchased Invitrogen, Karslruhe, Germany PV4071
T1 sequence (P33981 1-857): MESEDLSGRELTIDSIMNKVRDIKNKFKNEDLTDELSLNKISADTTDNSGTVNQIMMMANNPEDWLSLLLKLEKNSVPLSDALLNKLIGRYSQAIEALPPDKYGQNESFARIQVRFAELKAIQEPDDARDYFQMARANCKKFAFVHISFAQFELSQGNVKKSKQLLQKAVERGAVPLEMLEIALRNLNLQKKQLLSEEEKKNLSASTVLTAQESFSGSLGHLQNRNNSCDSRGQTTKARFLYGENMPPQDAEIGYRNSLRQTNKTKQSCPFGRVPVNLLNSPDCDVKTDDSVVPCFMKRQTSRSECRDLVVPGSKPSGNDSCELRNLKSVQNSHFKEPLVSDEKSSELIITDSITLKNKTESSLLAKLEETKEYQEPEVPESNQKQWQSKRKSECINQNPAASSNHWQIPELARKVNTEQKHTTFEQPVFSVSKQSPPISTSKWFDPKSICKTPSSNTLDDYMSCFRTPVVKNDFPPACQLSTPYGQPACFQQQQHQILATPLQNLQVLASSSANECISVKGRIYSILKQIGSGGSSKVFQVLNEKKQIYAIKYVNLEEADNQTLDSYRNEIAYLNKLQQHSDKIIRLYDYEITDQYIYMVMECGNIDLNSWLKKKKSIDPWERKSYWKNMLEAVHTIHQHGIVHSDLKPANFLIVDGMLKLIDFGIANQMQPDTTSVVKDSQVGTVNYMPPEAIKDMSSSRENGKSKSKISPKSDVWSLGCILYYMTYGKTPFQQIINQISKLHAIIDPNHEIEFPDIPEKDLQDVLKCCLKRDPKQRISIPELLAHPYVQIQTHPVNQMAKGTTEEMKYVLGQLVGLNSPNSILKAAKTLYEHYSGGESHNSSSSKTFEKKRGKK
Type: biochemical
Procedure, shortened: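 Next, Eu-labelled anti-phospho(Ser/Thr) antibody and SA-XLent bind for 1 h at 22° C. Finally, energy transfer quantifies phosphorylated product.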
`Cc1cc(-c2cnc3c(NCC4CCS(=O)(=O)CC4)cc(Oc4cccc(F)c4)nn23)ccc1C(=O)NC1CC1` [Example 298A, N-cyclopropyl-4-[8-{[(1,1-dioxidotetrahydro-2H-thiopyran-4-yl)methyl]amino}-6-(3-fluorophenoxy)imidazo[1,2-b]pyridazin-3-yl]-2-methylbenzamide] was tested, and the IC50 was less than 0.1 nM.
`CC(C)CNc1cc(-c2cccc(Cl)c2Cl)nn2c(-c3ccc(C(=O)NC4CC4)cc3)cnc12` [Example 131, N-cyclopropyl-4-{6-(2,3-dichlorophenyl)-8-[(2-methylpropyl)amino]imidazo[1,2-b]pyridazin-3-yl}benzamide] gave an IC50 of 10 nM.
`Cc1cc(-c2cnc3c(NCC(C)(C)O)cc(Oc4cccc(C(C)C)c4)nn23)ccc1C(=O)NC1CC1` [Example 94, N-cyclopropyl-4-{8-[(2-hydroxy-2-methylpropyl)amino]-6-(3-isopropylphenoxy)imidazo[1,2-b]pyridazin-3-yl}-2-methylbenzamide] was tested, and the IC50 was 0.3 nM.
In the case of `Cc1cc(-c2cnc3c(NCCCCN(C)C)cc(Oc4cccc(F)c4)nn23)ccc1C(=O)NC1CC1` [Example 513, N-cyclopropyl-4-[8-{[4-(dimethyl-amino)butyl]amino}-6-(3-fluoro-phenoxy)imidazo[1,2-b]pyridazin-3-yl]-2-methylbenzamide], the IC50 is reported as 0.2 nM.
For `CNC(=O)c1ccc(-c2cnc3c(NCC4CCOCC4)cc(Oc4cc(F)ccc4C)nn23)cc1C` [Example 572, 4-{6-(5-fluoro-2-methylphenoxy)-8-[(tetrahydro-2H-pyran-4-ylmethyl)amino]imidazo[1,2-b]pyridazin-3-yl}-N,2-dimethylbenzamide], the IC50 was less than 1 nM.
Work on `Cc1cc(-c2cnc3c(NCCC(F)(F)F)cc(Nc4ccccc4CO)nn23)ccc1C(=O)NC1CC1` [Example 370] yielded an IC50 of 0.1 nM.
Compound `Cc1cc(-c2cnc3c(NC[C@H]4CCCO4)cc(-c4ccnn4C)nn23)ccc1C(=O)NC1CC1` [Example 33, N-cyclopropyl-2-methyl-4-[6-(1-methyl-1H-pyrazol-5-yl)-8-{[(2R)-tetrahydrofuran-2-ylmethyl]amino}imidazo[1,2-b]pyridazin-3-yl]benzamide] has an IC50 of 1.5 nM.
`Cc1cc(-c2cnc3c(NCCC(F)(F)F)cc(Oc4cccc5ncccc45)nn23)ccc1C(=O)NC1CC1` [Example 170, N-cyclopropyl-2-methyl-4-{6-(quinolin-5-yloxy)-8-[(3,3,3-trifluoro-propyl)amino]imidazo[1,2-b]pyridazin-3-yl}benzamide] showed an IC50 of 0.7 nM.
Work on `Cc1cc(-c2cnc3c(NCCC(F)(F)F)cc(Oc4cccc(C(C)C)c4O)nn23)ccc1C(=O)NC1CC1` [Example 441, N-cyclopropyl-4-{6-[2-hydroxy-3-(propan-2-yl)phenoxy]-8-[(3,3,3-trifluoropropyl)amino]imidazo[1,2-b]pyridazin-3-yl}-2-methylbenzamide] yielded an IC50 of 0.5 nM.
In the case of `Cc1cc(-c2cnc3c(NCC(C)(C)O)cc(-c4ccc(F)c(CO)c4)nn23)ccc1C(=O)NC1CC1` [Example 165, N-cyclopropyl-4-{6-[4-fluoro-3-(hydroxymethyl)phenyl]-8-[(2-hydroxy-2-methylpropyl)amino]imidazo[1,2-b]pyridazin-3-yl}-2-methylbenzamide], the IC50 is reported as 1.8 nM.
Work on `Cc1cc(-c2cnc3c(NCC(C)(C)O)cc(Oc4cccc5ncccc45)nn23)ccc1C(=O)NC1CC1` [Example 167, N-cyclopropyl-4-{8-[(2-hydroxy-2-methylpropyl)amino]-6-(quinolin-5-yloxy)imidazo[1,2-b]pyridazin-3-yl}-2-methylbenzamide] yielded an IC50 of 2.3 nM.
`NC(=O)c1ccc(-c2cnc3c(NCc4cccs4)cc(Cl)nn23)cc1` [Example 191, 4-{6-Chloro-8-[(thiophen-2-yl-methyl)amino]imidazol[1,2-b]pyridazin-3-yl}benzamide] was tested, and the IC50 was no less than 20000 nM.
`Cc1cc(-c2cnc3c(NCC(C)(C)O)cc(-c4cncnc4)nn23)ccc1C(=O)NC1CC1` [Example 163, N-cyclopropyl-4-{8-[(2-hydroxy-2-methylpropyl)amino]-6-(pyrimidin-5-yl)imidazo[1,2-b]pyridazin-3-yl}-2-methylbenzamide] gave an IC50 of 30.5 nM.
In the case of `Cc1cc(-c2cnc3c(NCC(C)(C)O)cc(Oc4ccc(Cl)c(F)c4)nn23)ccc1C(=O)NC1CC1` [Example 95, 4-{6-(4-Chloro-3-fluorophenoxy)-8-[(2-hydroxy-2-methylpropyl)amino]imidazo[1,2-b]pyridazin-3-yl}-N-cyclopropyl-2-methylbenzamide], the IC50 is reported as 0.3 nM.
Work on `CC(C)CNc1cc(-c2cncnc2)nn2c(-c3ccc(C(=O)NC4CC4)cc3)cnc12` [Example 143, N-cyclopropyl-4-{8-[(2-methylpropyl)amino]-6-(pyrimidin-5-yl)imidazo [1,2-b]pyridazin-3-yl} benzamide] yielded an IC50 of 4.7 nM.
`COc1ccccc1Oc1cc(NCCC(F)(F)F)c2ncc(-c3ccc(C(=O)NC4CC4)c(C)c3)n2n1` [Example 223, N-cyclopropyl-4-{6-(2-methoxyphenoxy)-8-[(3,3,3-trifluoropropyl)amino]imidazo[1,2-b]pyridazin-3-yl}-2-methylbenzamide] was tested, and the IC50 was 0.2 nM.
`Cc1cc(-c2cnc3c(NCC(C)(C)O)cc(Sc4nnc[nH]4)nn23)ccc1C(=O)NC1CC1` [Example 316, N-cyclopropyl-4-{8-[(2-hydroxy-2-methylpropyl)amino]-6-(4H-1,2,4-tri-azol-3-ylsulfanyl)imidazo [1,2-b]pyridazin-3-yl}-2-methylbenzamide] was tested, and the IC50 was 118 nM.
`CNC(=O)c1ccc(-c2cnc3c(NCc4cccs4)cc(Cl)nn23)cc1` [Example 190, 4-{6-Chloro-8-[(thiophen-2-yl-methyl)amino]imidazo[1,2-b]pyridazin-3-yl}-N-methylbenzamide] was tested, and the IC50 was 660 nM.
`CCNC(=O)c1ccc(-c2cnc3c(NCCN4CCOCC4)cc(Oc4ccc(OC)cc4F)nn23)cc1C` [Example 591, N-ethyl-4-[6-(2-fluoro-4-methoxyphenoxy)-8-{[2-(morpholin-4-yl)ethyl]amino}imidazo[1,2-b]pyridazin-3-yl]-2-methylbenzamide] was tested, and the IC50 was 2.5 nM.
For `Cc1cc(-c2cnc3c(NCC(C)(C)O)cc(Oc4cccc(OC(C)C)c4)nn23)ccc1C(=O)NC1CC1` [Example 361, N-cyclopropyl-4-{8-[(2-hydroxy-2-methylpropyl)amino]-6-(3-isopropoxyphenoxy)imidazo[1,2-b]pyridazin-3-yl}-2-methylbenzamide], the IC50 was 0.3 nM.
Work on `Cc1cc(-c2cnc3c(NCC(C)(C)N)cc(Sc4cccc(F)c4)nn23)ccc1C(=O)NC1CC1` [Example 78, 4-{8-[(2-Amino-2-methylpropyl)amino]-6-[(3-fluorophenyl)sulfanyl]imidazo[1,2-b]pyridazin-3-yl}-N-cyclopropyl-2-methylbenzamide] yielded an IC50 of 0.2 nM.
With `Cc1cc(-c2cnc3c(NCC(C)(C)O)cc(-c4c(C)noc4C)nn23)ccc1C(=O)NC1CC1` [Example 159, N-cyclopropyl-4-{6-(3,5-dimethyl-1,2-oxazol-4-yl)-8-[(2-hydroxy-2-methylpropyl)amino]imidazo[1,2-b]pyridazin-3-yl}-2-methylbenzamide] the IC50 was 14.8 nM.
In the case of `CC(C)CNc1cc(-c2cncc(C#N)c2)nn2c(-c3ccc(C(=O)NC4CC4)cc3)cnc12` [Example 147, 4-{6-(5-Cyanopyridin-3-yl)-8-[(2-methylpropyl)amino]imidazo[1,2-b]pyridazin-3-yl}-N-cyclopropylbenzamide], the IC50 is reported as 2.2 nM.
With `CCNC(=O)c1ccc(-c2cnc3c(NCC(F)F)cc(Oc4ccc(OC)cc4F)nn23)cc1C` [Example 605, 4-{8-[(2,2-difluoroethyl)amino]-6-(2-fluoro-4-methoxyphen-oxy)imidazo[1,2-b]pyridazin-3-yl}-N-ethyl-2-methylbenzamide] the IC50 was 1.2 nM.
With `Cc1cc(-c2cnc3c(NCC(O)C(F)(F)F)cc(Oc4cccc(F)c4)nn23)ccc1C(=O)NC1CC1` (stereo not drawn) [Example 486, N-cyclopropyl-4-{6-(3-fluorophenoxy)-8-[(3,3,3-trifluoro-2-hydroxypropyl)amino]imidazo[1,2-b]pyridazin-3-yl}-2-methylbenzamide] the IC50 was 0.1 nM.
`CNC(=O)c1ccc(-c2cnc3c(NCC4CCOCC4)cc(Oc4ccc(OC)cc4F)nn23)cc1C` [Example 571, 4-{6-(2-fluoro-4-methoxyphenoxy)-8-[(tetrahydro-2H-pyran-4-ylmethyl)amino]imidazo[1,2-b]pyridazin-3-yl}-N,2-dimethylbenzamide] was tested, and the IC50 was less than 1 nM.
Work on `CNC(=O)c1ccc(-c2cc(NCC(C)C)c3ncc(-c4ccc(C(=O)NC5CC5)cc4)n3n2)cn1` [Example 149, 5-{3-[4-(Cyclopropylcarbamoyl)phenyl]-8-[(2-methylpropyl)amino]imidazo[1,2-b]pyridazin-6-yl}-N-methylpyridine-2-carboxamide] yielded an IC50 of 2.2 nM.

Reference: patent US9255100B2 (BAYER INTELLECTUAL PROPERTY GMBH, priority 2010, dated 2016)
